Calls of active or inactive are those of the source. The calls are words filed in the database; no cut-off is given here.
What was measured:
[1] = biological target: Leucine-rich repeat serine/threonine-protein kinase 2 (Homo sapiens, UniProt Q5S007, G2019S); experiment: Inhibition of purified N-terminal GST-tagged LRRK2 G2019S mutant autophosphorylation activity using [gamma32-P]ATP
[2] = biological target: Dual specificity tyrosine-phosphorylation-regulated kinase 1A (Homo sapiens) (UniProt Q13627); experiment: Inhibition of DYRK1A expressed in bacteria using [gamma32-P]ATP at 25 uM
[3] = tested on: Leucine-rich repeat serine/threonine-protein kinase 2 (Homo sapiens), Q5S007 [G2019S]; experiment: Inhibition of LRRK2 G2019S mutant expressed in mouse SN4741 cells assessed as reduction in hydrogen peroxide-induced neurotoxicity at 10 uM by measuring cell survival after 48 hrs by crystal violet assay relative to control; assay type: cell-based
[4] = biological target: Leucine-rich repeat serine/threonine-protein kinase 2 (Homo sapiens) (UniProt Q5S007); experiment: Inhibition of wild type LRRK2 expressed in mouse SN4741 cells assessed as reduction in hydrogen peroxide-induced neurotoxicity at 10 uM by measuring cell survival after 48 hrs by crystal violet assay relative to control; assay type: cell-based
[5] = Neurotoxicity in rat primary cortical neurons assessed as cell survival at 10 uM after 24 hrs by MTT assay; assay type: toxicity, cell-based, Cerebral cortex neuron; conditions: read-out: Activity
[6] = Neurotoxicity in rat primary cortical neurons assessed as cell survival at 100 uM after 24 hrs by MTT assay; assay type: toxicity, cell-based; conditions: cerebral cortex neuron
[7] = tested on: Leucine-rich repeat serine/threonine-protein kinase 2 (Homo sapiens), Q5S007 [G2019S]; experiment: Inhibition of purified N-terminal GST-tagged LRRK2 G2019S mutant autophosphorylation activity using myelin basic protein as substrate at 25 uM

Leucine-rich repeat serine/threonine-protein kinase 2 (Homo sapiens), Q5S007 [G2019S], sequence (Q5S007 whole entry G2019S): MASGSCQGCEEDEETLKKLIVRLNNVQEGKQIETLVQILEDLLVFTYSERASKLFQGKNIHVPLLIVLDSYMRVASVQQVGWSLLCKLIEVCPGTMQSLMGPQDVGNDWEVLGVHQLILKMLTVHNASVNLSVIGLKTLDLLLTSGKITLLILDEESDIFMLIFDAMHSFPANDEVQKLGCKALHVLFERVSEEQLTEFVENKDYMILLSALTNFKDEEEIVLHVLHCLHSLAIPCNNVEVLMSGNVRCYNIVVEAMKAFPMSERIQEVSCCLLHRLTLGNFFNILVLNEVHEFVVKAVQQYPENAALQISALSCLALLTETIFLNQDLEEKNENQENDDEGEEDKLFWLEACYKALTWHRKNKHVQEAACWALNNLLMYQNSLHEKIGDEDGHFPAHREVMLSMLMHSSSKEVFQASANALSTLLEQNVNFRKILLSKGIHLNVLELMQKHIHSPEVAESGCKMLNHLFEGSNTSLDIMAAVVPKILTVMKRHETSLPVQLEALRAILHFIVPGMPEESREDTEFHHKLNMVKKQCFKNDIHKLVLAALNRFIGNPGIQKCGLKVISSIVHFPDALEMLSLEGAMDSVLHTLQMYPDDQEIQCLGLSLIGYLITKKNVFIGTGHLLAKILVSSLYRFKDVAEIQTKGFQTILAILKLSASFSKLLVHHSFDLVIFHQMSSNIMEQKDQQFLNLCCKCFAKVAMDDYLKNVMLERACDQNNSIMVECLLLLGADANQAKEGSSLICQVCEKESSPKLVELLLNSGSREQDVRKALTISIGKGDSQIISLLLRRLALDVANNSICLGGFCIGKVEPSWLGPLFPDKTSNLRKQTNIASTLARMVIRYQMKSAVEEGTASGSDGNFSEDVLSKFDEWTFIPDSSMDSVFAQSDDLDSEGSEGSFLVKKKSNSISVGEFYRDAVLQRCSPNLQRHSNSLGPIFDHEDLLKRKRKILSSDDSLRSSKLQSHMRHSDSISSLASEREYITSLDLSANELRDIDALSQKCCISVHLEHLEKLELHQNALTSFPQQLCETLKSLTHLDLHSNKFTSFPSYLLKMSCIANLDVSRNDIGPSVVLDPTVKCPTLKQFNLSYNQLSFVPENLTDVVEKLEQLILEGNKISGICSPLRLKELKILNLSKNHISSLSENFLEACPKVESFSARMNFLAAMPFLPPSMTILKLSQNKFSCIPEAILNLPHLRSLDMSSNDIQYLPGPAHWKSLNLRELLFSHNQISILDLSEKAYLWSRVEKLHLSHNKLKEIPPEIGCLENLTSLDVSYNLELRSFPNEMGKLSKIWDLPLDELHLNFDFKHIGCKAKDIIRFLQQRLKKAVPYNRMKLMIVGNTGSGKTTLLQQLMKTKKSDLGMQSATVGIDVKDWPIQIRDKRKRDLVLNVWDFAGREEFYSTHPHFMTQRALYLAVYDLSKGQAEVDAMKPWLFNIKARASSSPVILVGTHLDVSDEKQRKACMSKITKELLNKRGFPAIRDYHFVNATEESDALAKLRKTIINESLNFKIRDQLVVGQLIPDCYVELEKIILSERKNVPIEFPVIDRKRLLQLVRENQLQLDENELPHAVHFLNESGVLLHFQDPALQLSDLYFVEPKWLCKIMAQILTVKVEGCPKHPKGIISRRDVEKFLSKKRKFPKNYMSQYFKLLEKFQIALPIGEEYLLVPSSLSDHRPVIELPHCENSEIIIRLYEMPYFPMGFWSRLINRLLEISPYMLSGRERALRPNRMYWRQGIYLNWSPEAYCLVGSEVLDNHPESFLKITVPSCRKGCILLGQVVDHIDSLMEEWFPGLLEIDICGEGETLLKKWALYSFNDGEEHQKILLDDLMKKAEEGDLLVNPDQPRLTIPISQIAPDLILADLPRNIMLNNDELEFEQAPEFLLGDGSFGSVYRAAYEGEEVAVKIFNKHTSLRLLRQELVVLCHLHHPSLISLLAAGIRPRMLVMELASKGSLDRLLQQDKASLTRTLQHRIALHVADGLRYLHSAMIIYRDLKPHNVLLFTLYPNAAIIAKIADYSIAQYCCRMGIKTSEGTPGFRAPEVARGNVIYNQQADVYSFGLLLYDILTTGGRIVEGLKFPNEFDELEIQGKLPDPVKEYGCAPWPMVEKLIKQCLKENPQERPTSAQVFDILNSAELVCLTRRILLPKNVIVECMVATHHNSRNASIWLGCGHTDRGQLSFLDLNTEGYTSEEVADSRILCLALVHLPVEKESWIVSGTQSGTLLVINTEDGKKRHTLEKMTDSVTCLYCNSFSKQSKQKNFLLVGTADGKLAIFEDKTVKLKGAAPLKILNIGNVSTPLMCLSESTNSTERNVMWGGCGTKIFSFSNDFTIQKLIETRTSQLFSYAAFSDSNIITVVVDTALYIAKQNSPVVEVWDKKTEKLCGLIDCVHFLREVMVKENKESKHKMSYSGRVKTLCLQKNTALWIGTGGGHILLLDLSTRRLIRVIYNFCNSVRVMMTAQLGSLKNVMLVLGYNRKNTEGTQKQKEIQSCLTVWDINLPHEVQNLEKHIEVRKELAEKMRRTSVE
Leucine-rich repeat serine/threonine-protein kinase 2, sequence (Q5S007 whole entry G2019S): as above
Leucine-rich repeat serine/threonine-protein kinase 2 (Homo sapiens), sequence (Q5S007 whole entry): as the sequence (Q5S007 whole entry G2019S) above, with S2019G counted along it

For Cc1cc(N/N=C/c2ccc(O)c(O)c2)nc2ccccc12, the IC50 [1] was 13.2 µM, the inhibition [2] was “inactive” and the Activity [3] was 50%. For the same molecule, the Activity [4] was 50%, the viability at 24 h, 10 µM [5] was 85% and the Activity [6] was “Toxic”. The inhibition [7] was “Active”.

For COc1cc(/C=N/Nc2nc3cc(C)ccc3cc2C)ccc1O, the inhibition [7] was “Active”.

With Cc1ccc2cc(C)c(N/N=C/c3ccc(O)cc3)nc2c1 the inhibition [7] was “Active”.

With Oc1ccc(/C=N/Nc2ccc3ccccc3n2)c(O)c1 the inhibition [7] was “Active”.

In the case of COc1ccc(/C=N/Nc2ccc3ccccc3n2)cc1, the inhibition [7] is reported as “Active”.

— ChEMBL document CHEMBL1770059, “Identification of chemicals to inhibit the kinase activity of leucine-rich repeat kinase 2 (LRRK2), a Parkinson's disease-associated protein” (Bioorg Med Chem Lett, 2011)
